Patent US9775844B2, “Heterocyclic compounds and uses thereof” (Infinity Pharmaceuticals, Inc., priority 2014, dated 2017)
Read-outs that look alike come from different tables or passages of the source.

Legend:
post-irradiated tumors = details: cited from earlier work
CCL3, CCL4, and CXCL13 = details: CLL; cited from earlier work
[1] = system: haematological malignancies; details: cited from earlier work
[2] = Human pharmacokinetic prediction based on non-human animal studies
Experimental: Based on non-human animal studies, a predicted human dose to achieve exposure at the IC90 for PI3K-γ is approximately 2 mg. […] In some embodiments, the dose (e.g., a therapeutically effective dose) is about 2 mg, 1-3 mg, 1-5 mg, 1-10 mg, 0.5-20 mg, 0.1-50 mg, 0.1-75 mg, 0.5-75 mg, 1-75 mg, 0.1-100 mg, 0.5-100 mg, or 1-100 mg. In some embodiments, the dose is about 1-10 mg. In some embodiments, the dose is about 1-50 mg. In some embodiments, the dose is about 1-100 mg. In a 70 kg human, a 2 mg dose corresponds to 0.029 mg/kg.

[3] = target: PI3K-γ in RAW264.7 macrophages (Mus musculus (Mouse), UniProt Q9JHG7); test: Raw264.7 p110 γ assay (PI3K-γ selective cellular assay, C5a-stimulated phospho-AKT); type: cell-based; details: for IC50: phospho-AKT, read-out: Raw264.7 p110 γ assay IC50
Excerpt: Briefly, serum-starved RAW264.7 cells are stimulated with a known GPCR agonist C5a. […] Cells can be treated with test compounds prior to, simultaneously with, or subsequent to the stimulation by C5a. RAW 264.7 cells respond to the complement component fragment C5a through activation of the C5a receptor, and the C5a receptor activates macrophages and induces cell migration.

PI3K α = PI3K α (Homo sapiens (Human), UniProt P42336); test: PI3-Kinase Promega ADP-Glo Max assay; type: biochemical
Experimental: (§1) Promega ADP-Glo Max assay kit (Cat. No. V7002) was utilized to determine IC50 values for α, β, δ and γ isoforms of human Class I PI3 kinases (Millipore). […] Reactions were incubated at room temperature for 2 hours followed by addition of 25 uL of stop solution. After a 40-minute incubation at room temperature, 50 uL of Promega detection mix was added followed by incubation for 1 hour at room temperature. Plates were then read on Envision plate reader in lunimescence mode. Data was converted to % inhibition using the following equation below:
(§2) [formula] where S is the sample luminescence, Pos is a positive control without added PI3K, Neg is the negative control without added compound. Data was then plotted as % inhibition vs compound concentration.

PI3K γ = PI3K γ (Homo sapiens (Human), UniProt P48736); test: PI3-Kinase Promega ADP-Glo Max assay; type: biochemical
PI3K-δ in RAJI cells = PI3K-δ in RAJI cells (Homo sapiens (Human), UniProt O00329); test: RAJI p110 δ assay (PI3K-δ selective cellular assay, phospho-AKT); type: cell-based; details: phospho-AKT; read-out: RAJI p110 δ assay IC50
PI3K β = PI3K β (Homo sapiens (Human), UniProt P42338); test: PI3-Kinase Promega ADP-Glo Max assay; type: biochemical
Experimental: as §1, §2

PI3K δ = PI3K δ (Homo sapiens (Human), UniProt O00329); test: PI3-Kinase Promega ADP-Glo Max assay; type: biochemical
[4] = Mouse pharmacokinetics, oral single and repeat dose; type: in vivo; details: for tlast / AUC(0-t) / Cmax / Tmax / AUC(0-inf) / half-life: female C57 mice; for AUC(0-t): female, C57, mouse, po; for AUC(0-t) / Cmax / Tmax / AUC(0-inf) / half-life: plasma; for Cmax / Tmax / AUC(0-inf) / half-life: mouse
Experimental: Animals were weighed daily prior to dosing. […] On subsequent dosing days, the animals' condition was noted prior to dosing; the animals were observed within 4 hours of dosing, and at the end of the day.
Samples were collected at pre-dose 0.25, 0.5, 1, 2, 4, 6 and 24 h following the first dose on day 1 and pre-dose (trough), 0.25, 0.5, 1, 2, 4, 6 and 24 h following the final dose on day 3 Animals received a single oral dose daily for 3 consecutive days. Blood was collected by retro-orbital bleeding for all time points on day 1. All other blood sampling was collected by a cardiac puncture. Blood was collected into K2EDTA tubes and placed on wet ice. Within 15 min of collection, the sample was centrifuged at 10,000 rpm at 4° C. for 10 min in a bench top centrifuge and the plasma transferred to a new microcentrifuge tube.
A similar study was carried out using Compound 88. […] Below is a table that details the results for Compound 88: […]

LLC tumor brei = LLC tumor brei model with or without cyclophosphamide (tumor growth, FACS); type: in vivo, mouse; details: Compound BB 15 mg/kg QD PO; cyclophosphamide 50 mg/kg EOD IP
Experimental: In this experiment, treatment began when tumors reached approx. 150 mm^3—around day 12. Caliper and xenogen images were monitored. Treatment groups n=13-15/group. […] Samples for FACs analysis were collected on day 23 post implant. Using FACS, cells were assayed for the level of CD11b and Gr-1.

Chain of PI3K-γ in RAW264.7 macrophages (Q9JHG7 whole entry): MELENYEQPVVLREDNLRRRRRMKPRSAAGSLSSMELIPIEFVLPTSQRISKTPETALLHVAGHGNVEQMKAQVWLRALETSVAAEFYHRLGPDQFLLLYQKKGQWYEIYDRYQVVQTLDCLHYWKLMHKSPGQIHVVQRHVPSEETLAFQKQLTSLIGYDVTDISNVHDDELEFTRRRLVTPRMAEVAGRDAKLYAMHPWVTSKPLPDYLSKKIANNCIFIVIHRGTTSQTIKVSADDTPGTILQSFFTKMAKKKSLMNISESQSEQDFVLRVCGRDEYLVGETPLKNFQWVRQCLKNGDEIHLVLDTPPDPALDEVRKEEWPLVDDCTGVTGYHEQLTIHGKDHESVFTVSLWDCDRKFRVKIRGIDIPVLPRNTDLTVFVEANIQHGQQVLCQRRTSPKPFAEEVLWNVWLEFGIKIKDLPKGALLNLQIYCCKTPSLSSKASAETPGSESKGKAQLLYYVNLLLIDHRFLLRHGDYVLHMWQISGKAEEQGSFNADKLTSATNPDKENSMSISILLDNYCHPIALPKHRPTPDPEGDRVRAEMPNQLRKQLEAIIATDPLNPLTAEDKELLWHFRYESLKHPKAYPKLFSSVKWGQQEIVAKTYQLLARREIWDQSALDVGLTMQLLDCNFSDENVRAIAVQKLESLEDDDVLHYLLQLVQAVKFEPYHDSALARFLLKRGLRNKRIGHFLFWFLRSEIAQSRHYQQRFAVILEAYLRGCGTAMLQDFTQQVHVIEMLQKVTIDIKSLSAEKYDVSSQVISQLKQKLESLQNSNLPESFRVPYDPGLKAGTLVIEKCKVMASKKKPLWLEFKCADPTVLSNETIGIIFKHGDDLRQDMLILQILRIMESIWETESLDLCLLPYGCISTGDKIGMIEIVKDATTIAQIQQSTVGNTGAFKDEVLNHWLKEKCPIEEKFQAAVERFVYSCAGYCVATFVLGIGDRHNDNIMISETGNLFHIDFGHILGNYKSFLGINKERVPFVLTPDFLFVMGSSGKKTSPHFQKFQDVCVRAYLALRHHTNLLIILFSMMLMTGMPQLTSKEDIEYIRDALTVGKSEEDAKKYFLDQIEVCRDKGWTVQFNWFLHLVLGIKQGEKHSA
Chain of PI3K β (P42338 whole entry): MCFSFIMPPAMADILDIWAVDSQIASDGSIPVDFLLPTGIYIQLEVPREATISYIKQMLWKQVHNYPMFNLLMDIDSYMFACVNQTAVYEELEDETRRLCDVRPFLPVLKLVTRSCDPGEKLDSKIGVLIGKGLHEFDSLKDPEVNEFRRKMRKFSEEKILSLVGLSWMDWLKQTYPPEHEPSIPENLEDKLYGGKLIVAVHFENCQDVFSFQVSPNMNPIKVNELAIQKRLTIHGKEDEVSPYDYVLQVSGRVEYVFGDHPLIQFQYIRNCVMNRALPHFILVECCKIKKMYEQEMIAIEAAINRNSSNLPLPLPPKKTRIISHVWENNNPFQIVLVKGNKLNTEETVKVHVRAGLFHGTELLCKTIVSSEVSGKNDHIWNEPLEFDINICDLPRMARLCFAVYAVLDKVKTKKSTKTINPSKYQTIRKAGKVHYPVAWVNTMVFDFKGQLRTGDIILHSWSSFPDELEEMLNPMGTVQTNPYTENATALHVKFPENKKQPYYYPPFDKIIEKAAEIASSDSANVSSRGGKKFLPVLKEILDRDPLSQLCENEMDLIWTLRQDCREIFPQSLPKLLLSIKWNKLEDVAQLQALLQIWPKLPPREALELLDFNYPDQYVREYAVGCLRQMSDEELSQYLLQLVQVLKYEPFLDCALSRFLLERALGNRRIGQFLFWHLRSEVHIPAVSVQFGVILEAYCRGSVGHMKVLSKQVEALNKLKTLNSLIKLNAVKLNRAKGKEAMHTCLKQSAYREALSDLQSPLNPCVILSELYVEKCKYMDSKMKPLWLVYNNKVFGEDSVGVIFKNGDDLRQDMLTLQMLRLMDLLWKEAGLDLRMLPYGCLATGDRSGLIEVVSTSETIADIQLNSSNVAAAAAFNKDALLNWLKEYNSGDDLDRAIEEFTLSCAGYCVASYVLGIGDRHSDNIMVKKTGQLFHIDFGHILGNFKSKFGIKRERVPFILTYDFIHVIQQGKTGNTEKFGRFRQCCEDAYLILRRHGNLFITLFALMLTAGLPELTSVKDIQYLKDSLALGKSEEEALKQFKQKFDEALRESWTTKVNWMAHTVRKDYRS
Chain of PI3K β (P27986 whole entry partner): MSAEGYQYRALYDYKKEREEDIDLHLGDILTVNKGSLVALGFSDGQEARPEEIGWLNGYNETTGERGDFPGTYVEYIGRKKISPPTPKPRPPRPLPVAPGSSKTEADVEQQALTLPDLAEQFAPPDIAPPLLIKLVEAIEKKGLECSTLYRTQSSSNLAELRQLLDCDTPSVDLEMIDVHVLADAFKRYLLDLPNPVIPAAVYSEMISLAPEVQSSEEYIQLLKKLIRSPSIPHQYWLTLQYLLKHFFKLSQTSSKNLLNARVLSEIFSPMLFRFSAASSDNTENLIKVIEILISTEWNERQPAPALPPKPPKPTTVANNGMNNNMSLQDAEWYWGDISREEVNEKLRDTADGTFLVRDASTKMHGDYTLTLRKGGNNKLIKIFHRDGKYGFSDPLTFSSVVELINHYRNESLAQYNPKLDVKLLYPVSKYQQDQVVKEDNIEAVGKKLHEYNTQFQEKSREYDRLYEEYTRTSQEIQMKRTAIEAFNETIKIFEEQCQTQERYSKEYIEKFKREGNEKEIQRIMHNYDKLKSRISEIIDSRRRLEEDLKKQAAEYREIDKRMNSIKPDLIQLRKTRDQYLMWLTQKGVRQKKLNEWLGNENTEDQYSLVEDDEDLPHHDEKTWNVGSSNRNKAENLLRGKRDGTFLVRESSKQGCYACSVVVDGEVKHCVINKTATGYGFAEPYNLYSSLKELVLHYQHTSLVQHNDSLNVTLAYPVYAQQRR
Chain of PI3K γ (P48736 whole entry): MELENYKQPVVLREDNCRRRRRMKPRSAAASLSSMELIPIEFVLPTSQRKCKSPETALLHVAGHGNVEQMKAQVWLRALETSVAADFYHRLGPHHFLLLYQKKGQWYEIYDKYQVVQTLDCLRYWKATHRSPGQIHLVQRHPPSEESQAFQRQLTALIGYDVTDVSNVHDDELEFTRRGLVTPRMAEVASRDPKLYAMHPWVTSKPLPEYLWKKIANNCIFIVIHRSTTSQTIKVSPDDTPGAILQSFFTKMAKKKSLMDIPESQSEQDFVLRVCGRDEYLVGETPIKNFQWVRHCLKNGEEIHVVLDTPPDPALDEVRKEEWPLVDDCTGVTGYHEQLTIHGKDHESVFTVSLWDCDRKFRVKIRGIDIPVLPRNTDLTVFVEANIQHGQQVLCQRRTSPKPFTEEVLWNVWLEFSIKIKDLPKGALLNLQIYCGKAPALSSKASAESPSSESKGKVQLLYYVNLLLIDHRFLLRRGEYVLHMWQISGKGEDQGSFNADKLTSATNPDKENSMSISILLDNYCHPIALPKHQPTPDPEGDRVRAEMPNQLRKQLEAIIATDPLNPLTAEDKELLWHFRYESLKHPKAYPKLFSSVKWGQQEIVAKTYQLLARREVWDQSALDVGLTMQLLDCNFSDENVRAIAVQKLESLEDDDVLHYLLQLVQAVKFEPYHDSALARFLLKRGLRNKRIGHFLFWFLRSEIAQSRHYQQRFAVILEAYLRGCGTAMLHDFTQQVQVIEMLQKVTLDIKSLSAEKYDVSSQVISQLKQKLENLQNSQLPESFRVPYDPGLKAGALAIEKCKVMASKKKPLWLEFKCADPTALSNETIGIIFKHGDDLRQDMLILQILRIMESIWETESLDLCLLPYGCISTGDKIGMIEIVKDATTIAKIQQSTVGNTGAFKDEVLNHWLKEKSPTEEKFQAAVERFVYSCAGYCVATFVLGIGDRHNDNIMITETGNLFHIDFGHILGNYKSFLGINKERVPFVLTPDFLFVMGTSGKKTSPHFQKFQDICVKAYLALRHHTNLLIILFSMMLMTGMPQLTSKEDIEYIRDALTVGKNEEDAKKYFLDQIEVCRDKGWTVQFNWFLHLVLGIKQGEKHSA
Chain of PI3K-δ in RAJI cells (O00329 whole entry): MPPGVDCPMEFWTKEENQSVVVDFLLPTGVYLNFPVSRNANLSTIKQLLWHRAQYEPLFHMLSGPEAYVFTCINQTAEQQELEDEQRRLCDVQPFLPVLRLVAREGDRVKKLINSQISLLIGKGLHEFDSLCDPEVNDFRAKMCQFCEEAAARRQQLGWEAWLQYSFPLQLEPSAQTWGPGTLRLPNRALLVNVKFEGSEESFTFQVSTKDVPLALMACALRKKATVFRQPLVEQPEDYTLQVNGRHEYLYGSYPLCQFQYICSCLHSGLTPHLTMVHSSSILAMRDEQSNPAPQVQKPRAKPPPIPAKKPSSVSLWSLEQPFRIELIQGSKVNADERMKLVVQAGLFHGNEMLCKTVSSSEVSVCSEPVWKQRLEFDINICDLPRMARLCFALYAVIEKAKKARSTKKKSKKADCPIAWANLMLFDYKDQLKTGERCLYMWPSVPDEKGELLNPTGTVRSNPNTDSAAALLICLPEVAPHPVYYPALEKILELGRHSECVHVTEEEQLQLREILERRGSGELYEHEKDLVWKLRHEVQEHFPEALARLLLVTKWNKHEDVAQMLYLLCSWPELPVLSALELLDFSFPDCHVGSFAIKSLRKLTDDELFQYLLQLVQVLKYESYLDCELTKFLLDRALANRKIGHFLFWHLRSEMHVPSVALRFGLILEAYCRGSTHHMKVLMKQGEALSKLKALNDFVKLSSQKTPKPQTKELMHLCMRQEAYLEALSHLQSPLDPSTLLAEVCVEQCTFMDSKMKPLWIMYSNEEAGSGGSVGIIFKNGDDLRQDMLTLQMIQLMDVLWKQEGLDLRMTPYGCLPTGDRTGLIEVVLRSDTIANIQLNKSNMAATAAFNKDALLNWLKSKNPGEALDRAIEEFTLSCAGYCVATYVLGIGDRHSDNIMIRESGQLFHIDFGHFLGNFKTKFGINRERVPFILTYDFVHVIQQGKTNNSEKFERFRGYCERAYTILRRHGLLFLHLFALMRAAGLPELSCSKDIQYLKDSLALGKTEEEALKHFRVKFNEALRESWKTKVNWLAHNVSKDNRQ
Chain of PI3K-δ in RAJI cells (P27986 whole entry partner): as the sequence (P27986 whole entry partner) above

SMILES | RAJIδ/Raw264.7 γ IC50 (selectivity) [3] | IC50 [3] [µM] | IC50 (PI3K α) [µM] | IC50 (PI3K γ) [µM] | PI3K δ/PI3K γ IC50 (selectivity) (PI3K γ) | IC50 (PI3K-δ in RAJI cells) [µM] | IC50 (PI3K β) [µM] | IC50 (PI3K δ) [µM] | other results
c1cc(CN2CCCNCCNCCCNCC2)ccc1CN1CCCNCCNCCCNCC1 [AMD3100] | – | – | – | – | – | – | – | – | tumor vasculogenesis and tumor regrowth (post-irradiated tumors): blocked tumor vasculogenesis and tumor regrowth
CC[C@H](Nc1ncnc2[nH]cnc12)c1nc2cccc(F)c2c(=O)n1-c1ccccc1 [CAL-101] | – | – | – | – | – | – | – | – | expression of stromal and T-cell derived factors including CCL3, CCL4, and CXCL13 (CCL3, CCL4, and CXCL13): suppresses the expression; lymph node and lymphocyte response in CLL patients ([1]; CLL patients): induces rapid lymph node reduction and redistribution of lymphocytes into the circulation; single agent clinical activity in lymphoma ([1]; mantle cell lymphoma and refractory non Hodgkin's lymphoma): active in mantle cell lymphoma; clinical activity in CLL ([1]; phase 1 trial, patients with poor prognostic characteristics): showed activity in CLL
C[C@H](NC(=O)c1c(N)nn2cccnc12)c1cc2cccc(C#Cc3cnn(C)c3)c2c(=O)n1-c1ccccc1 [Compound 4] | – | – | – | – | – | – | – | – | predicted human dose to achieve exposure at the IC90 for PI3K-γ [2]: approximately 2 mg
C[C@H](NC(=O)c1c(N)nn2cccnc12)c1cc2cccc(C#CC3CCN(S(C)(=O)=O)CC3)c2c(=O)n1-c1ccccc1 [Compound 83] | X (key: V = 0.1 to 1; W = >1 to <10; X = 10 to <50; Y = 50 to <850) | 0.001 to 0.05 | 5 to 10 | 0.5 to 1 | X (key: V = 0.1 to 1; W = >1 to <10; X = 10 to <50; Y = 50 to <850) | 0.5 to 1 | 5 to 10 | 5 to 10 | –
C[C@H](NC(=O)c1c(N)nn2cccnc12)c1cc2cccc(C#CC3CCOC3)c2c(=O)n1-c1ccccc1 (stereo partly drawn) [Compound 84] | X (X = 10 to <50) | 0.001 to 0.05 | 5 to 10 | 0.001 to 0.1 | Y (Y = 50 to <850) | 0.1 to 0.5 | 5 to 10 | 5 to 10 | –
Cc1c(C#Cc2cccc3nc([C@H](C)NC(=O)c4c(N)nn5cccnc45)n(-c4ccccc4)c(=O)c23)cnn1C [Compound 88, (S)-2-amino-N-(1-(5-((1,5-dimethyl-1H-pyrazol-4-yl)ethynyl)-4-oxo-3-phenyl-3,4-dihydroquinazolin-2-yl)ethyl)pyrazolo[1,5-a]pyrimidine-3-carboxamide] | Y (key: V = 0.1 to 1; W = >1 to <10; X = 10 to <50; Y = 50 to <850) | 0.001 to 0.05 | 5 to 10 | 0.1 to 0.5 | X (key: V = 0.1 to 1; W = >1 to <10; X = 10 to <50; Y = 50 to <850) | 0.1 to 0.5 | 5 to 10 | 5 to 10 | tlast ([4]; 2 mg/kg PO NMP): 8 h; tlast ([4]; 7.5 mg/kg PO NMP): 24 h; tlast ([4]; 15 mg/kg PO NMP): 24 h; stability in serum (unbound plasma concentration time course) ([4]; female mice, 2, 7.5, 15 mg/kg PO): good stability in serum; AUC(0-t) ([4]; 2 mg/kg, 2 mg/kg PO NMP, read-out: AUC0-8): 3890 ng·h/mL; AUC(0-t) ([4]; 2 mg/kg, 2 mg/kg PO NMP, read-out: AUClast): 3890 ng·h/mL; AUC(0-t) ([4]; 7.5 mg/kg, 7.5 mg/kg PO NMP, read-out: AUC0-8): 15800 ng·h/mL; AUC(0-t) ([4]; 7.5 mg/kg, 7.5 mg/kg PO NMP, read-out: AUClast): 20600 ng·h/mL; AUC(0-t) ([4]; 15 mg/kg, 15 mg/kg PO NMP, read-out: AUC0-8): 34600 ng·h/mL; AUC(0-t) ([4]; 15 mg/kg, 15 mg/kg PO NMP, read-out: AUClast): 71700 ng·h/mL; Cmax ([4]; 2 mg/kg PO NMP): 654 ng/mL; Tmax ([4]; 2 mg/kg PO NMP): 2 h; AUC(0-inf) ([4]; 7.5 mg/kg PO NMP): 20700 ng·h/mL; Cmax ([4]; 7.5 mg/kg PO NMP): 3700 ng/mL; Tmax ([4]; 7.5 mg/kg PO NMP): 1 h; half-life ([4]; 7.5 mg/kg PO NMP): 2.8 h; AUC(0-inf) ([4]; 15 mg/kg PO NMP): 81200 ng·h/mL; Cmax ([4]; 15 mg/kg PO NMP): 5700 ng/mL; Tmax ([4]; 15 mg/kg PO NMP): 1 h; half-life ([4]; 15 mg/kg PO NMP): 7.9 h
C[C@H](NC(=O)c1c(N)nn2cccnc12)c1cc2ccc3ccccc3c2c(=O)n1-c1ccccc1 [Compound 89] | Y (Y = 50 to <850) | 0.001 to 0.05 | 5 to 10 | 0.5 to 1 | X (X = 10 to <50) | 1 to 10 | 5 to 10 | 5 to 10 | –
C[C@H](NC(=O)c1c(N)nn2cccnc12)c1cc2cccc(NC(=O)c3cnn(C)c3)c2c(=O)n1-c1ccccc1 [Compound 90] | X (key: V = 0.1 to 1; W = >1 to <10; X = 10 to <50; Y = 50 to <850) | 0.1 to 10 | 5 to 10 | 1 to 5 | W (key: V = 0.1 to 1; W = >1 to <10; X = 10 to <50; Y = 50 to <850) | 1 to 10 | 5 to 10 | 5 to 10 | –
C[C@H](NC(=O)c1c(N)nn2cccnc12)c1cc2cccc(CC(=O)c3cnn(C)c3)c2c(=O)n1-c1ccccc1 [Compound 91] | W (W = >1 to <10) | 0.1 to 10 | 5 to 10 | 0.5 to 1 | W (W = >1 to <10) | 0.1 to 0.5 | 5 to 10 | 5 to 10 | –
O=P1(N(CCCl)CCCl)NCCCO1 (stereo not drawn) [cyclophosphamide, reference compound] | – | – | – | – | – | – | – | – | tumor growth, LLC tumor brei model (LLC tumor brei): reduced tumor growth
